pEC50: −log10 of the molar value.
Experiments:
Assay type in all cases: cell-based
[1] = biological target: human CB2 receptor (hCB2) (Homo sapiens, UniProt P34972); assay: cell-based; conditions: intracellular cAMP, CHO-K1 cells, NKH-477 prestimulated, + agonist, − inverse agonist
[2] = biological target: human CB1 receptor (hCB1) (Homo sapiens, UniProt P21554); assay: cAMP assay (LANCE TR-FRET) in CHO-K1 cells expressing hCB1; conditions: intracellular cAMP, NKH-477 prestimulated, + agonist, − inverse agonist
human CB1 receptor (hCB1), sequence (P21554 whole entry): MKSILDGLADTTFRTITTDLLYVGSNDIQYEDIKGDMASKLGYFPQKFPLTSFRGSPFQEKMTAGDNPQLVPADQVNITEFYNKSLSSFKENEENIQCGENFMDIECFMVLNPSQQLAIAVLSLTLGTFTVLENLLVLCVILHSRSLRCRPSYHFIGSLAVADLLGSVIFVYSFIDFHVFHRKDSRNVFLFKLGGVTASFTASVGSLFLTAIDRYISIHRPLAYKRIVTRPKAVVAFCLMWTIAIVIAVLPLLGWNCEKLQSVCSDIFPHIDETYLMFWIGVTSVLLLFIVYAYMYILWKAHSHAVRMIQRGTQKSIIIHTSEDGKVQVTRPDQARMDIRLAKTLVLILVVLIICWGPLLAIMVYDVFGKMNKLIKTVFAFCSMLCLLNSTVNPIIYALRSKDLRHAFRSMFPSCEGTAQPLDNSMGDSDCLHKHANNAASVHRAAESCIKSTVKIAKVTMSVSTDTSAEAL

rat CB2 receptor (rCB2) = biological target: T1, rat CB2 receptor (rCB2) (Rattus norvegicus, UniProt Q9QZN9); assay: cell-based; conditions: intracellular cAMP, CHO-K1 cells, NKH-477 prestimulated, + agonist, − inverse agonist
T1 sequence (Q9QZN9 1-360): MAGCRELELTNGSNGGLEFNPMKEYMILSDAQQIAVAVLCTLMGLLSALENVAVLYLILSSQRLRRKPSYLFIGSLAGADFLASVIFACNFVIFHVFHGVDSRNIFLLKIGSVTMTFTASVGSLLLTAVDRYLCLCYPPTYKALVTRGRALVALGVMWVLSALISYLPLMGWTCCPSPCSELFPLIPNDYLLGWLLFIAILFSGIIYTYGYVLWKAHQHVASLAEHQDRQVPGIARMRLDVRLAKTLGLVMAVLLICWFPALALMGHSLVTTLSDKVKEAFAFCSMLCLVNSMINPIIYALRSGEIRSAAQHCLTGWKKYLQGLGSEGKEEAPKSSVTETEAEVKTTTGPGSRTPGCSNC

human CB2 receptor (hCB2), sequence (P34972 whole entry): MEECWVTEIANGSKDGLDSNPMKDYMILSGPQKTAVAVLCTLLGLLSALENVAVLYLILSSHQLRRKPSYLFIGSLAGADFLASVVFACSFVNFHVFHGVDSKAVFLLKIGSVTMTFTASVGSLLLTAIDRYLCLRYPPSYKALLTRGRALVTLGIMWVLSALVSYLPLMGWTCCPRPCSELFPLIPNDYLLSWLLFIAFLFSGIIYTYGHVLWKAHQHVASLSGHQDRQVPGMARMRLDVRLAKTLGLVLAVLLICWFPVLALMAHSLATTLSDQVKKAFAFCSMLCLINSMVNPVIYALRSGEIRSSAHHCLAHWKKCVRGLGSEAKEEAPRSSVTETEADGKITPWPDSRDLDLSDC

CC(C)CNC(=O)c1ccc2c(c1)N(C(=O)c1ccc(Cl)cc1)CCS2 [Example 1, 4-(4-chlorobenzoyl)-N-isobutyl-3,4-dihydro-2H-benzo[b][1,4]thiazine-6-carboxamide]
hCB2 EC50 range [1]: −E
hCB1 EC50 range [2]: −E

CC(C)CNC(=O)c1ccc2c(c1)N(C(=O)c1ccccc1)CCS2 [Example 2, 4-benzoyl-N-isobutyl-3,4-dihydro-2H-benzo[b][1,4]thiazine-6-carboxamide]
hCB2 EC50 range [1]: −E
rCB2 EC50 range (rat CB2 receptor (rCB2)): −C
hCB1 EC50 range [2]: −E

Cc1ccc(C(=O)N2CCSc3ccc(C(=O)NCC(C)C)cc32)cc1 [Example 4, N-isobutyl-4-(4-methylbenzoyl)-3,4-dihydro-2H-benzo[b][1,4] thiazine-6-carboxamide]
hCB2 EC50 range [1]: −E
hCB1 EC50 range [2]: −E

COc1ccc(C(=O)N2CCSc3ccc(C(=O)NCC(C)C)cc32)cc1 [Example 5, N-isobutyl-4-(4-meth-oxybenzoyl)-3,4-di-hydro-2H-benzo[b] [1,4]thiazine-6-carboxamide]
hCB2 EC50 range [1]: −E
rCB2 EC50 range (rat CB2 receptor (rCB2)): −E
hCB1 EC50 range [2]: −E

Cc1ccc(C(=O)N2CCSc3ccc(C(=O)NC4CCCC4)cc32)cc1 [Example 13, N-cyclopentyl-4-(4-methylbenzoyl)-3,4-dihydro-2H-benzo[b] [1,4]thiazine-6-carboxamide]
pEC50 ([1]; read-out: hCB2 EC50 range): < 5.00
pEC50 (rat CB2 receptor (rCB2); read-out: rCB2 EC50 range): < 5.00
pEC50 ([2]; read-out: hCB1 EC50 range): < 5.00

O=C(NC1CCCC1)c1ccc2c(c1)N(C(=O)c1ccccc1)CCS2 [Example 14, 4-benzoyl-N-cyclopentyl-3,4-dihydro-2H-benzo[b][1,4]thiazine-6-carboxamide]
hCB2 EC50 range [1]: −E
rCB2 EC50 range (rat CB2 receptor (rCB2)): −D
hCB1 EC50 range [2]: −E

O=C(NC12CC3CC(CC(C3)C1)C2)c1ccc2c(c1)N(C(=O)c1ccccc1)CCS2 [Example 21, 4-benzoyl-N-(1-adamantyl)-3,4-dihydro-2H-benzo[b][1,4]thiazine-6-carboxamide]
hCB2 EC50 range [1]: −E
rCB2 EC50 range (rat CB2 receptor (rCB2)): −D
hCB1 EC50 range [2]: −E

O=C(NC12CC3CC(CC(C3)C1)C2)c1ccc2c(c1)N(C(=O)c1ccc(F)cc1)CCS2 [Example 22]
hCB2 EC50 range [1]: −E
rCB2 EC50 range (rat CB2 receptor (rCB2)): −D
hCB1 EC50 range [2]: −E

Cc1ccc(C(=O)N2CCSc3ccc(C(=O)NC45CC6CC(CC(C6)C4)C5)cc32)cc1 [Example 23, N-(1-adamantyl)-4-(4-methylbenzoyl)-3,4-dihydro-2H-benzo[b][1,4]thiazine-6-carboxamide]
hCB2 EC50 range [1]: −E
rCB2 EC50 range (rat CB2 receptor (rCB2)): −D
hCB1 EC50 range [2]: −E

O=C(NC12CC3CC(CC(C3)C1)C2)c1ccc2c(c1)N(C(=O)c1ccc(Cl)cc1)CCS2 [Example 24, N-(1-adamantyl)-4-(4-chlorobenzoyl)-3,4-dihydro-2H-benzo[b][1,4]thiazine-6-carboxamide]
hCB2 EC50 range [1]: −E
rCB2 EC50 range (rat CB2 receptor (rCB2)): −D
hCB1 EC50 range [2]: −E

COc1ccc(C(=O)N2CCSc3ccc(C(=O)NC45CC6CC(CC(C6)C4)C5)cc32)cc1 [Example 25, N-(1-adamantyl)-4-(4-methoxybenzoyl)-3,4-dihydro-2H-benzo[b][1,4]thiazine-6-carboxamide]
hCB2 EC50 range [1]: −E
rCB2 EC50 range (rat CB2 receptor (rCB2)): −D
hCB1 EC50 range [2]: −E

CC(C)C(=O)N1CCSc2ccc(C(=O)NC34CC5CC(CC(C5)C3)C4)cc21 [Example 40, N-(1-adamantyl)-4-isobutyryl-3,4-dihydro-2H-benzo[b][1,4]thiazine-6-carboxamide]
hCB2 EC50 range [1]: +D
rCB2 EC50 range (rat CB2 receptor (rCB2)): −D
hCB1 EC50 range [2]: −E

O=C(c1ccc2c(c1)N(S(=O)(=O)c1ccc(F)cc1)CCS2)N1CCOCC1 [Example 42, (4-(4-fluorophenylsulfonyl)-3,4-dihydro-2H-benzo[b][1,4]thiazin-6-yl)(morpholino)methanone]
hCB2 EC50 range [1]: +D
rCB2 EC50 range (rat CB2 receptor (rCB2)): +C
hCB1 EC50 range [2]: +E

CC(C)CNC(=O)c1ccc2c(c1)N(S(=O)(=O)c1ccc(F)cc1)CCS2 [Example 43, 4-(4-fluorophenylsulfonyl)-N-isobutyl-3,4-dihydro-2H-benzo[b][1,4]thiazine-6-carboxamide]
hCB2 EC50 range [1]: +B
rCB2 EC50 range (rat CB2 receptor (rCB2)): +A
hCB1 EC50 range [2]: +D

CC(C)(C)NC(=O)c1ccc2c(c1)N(S(=O)(=O)c1ccc(F)cc1)CCS2 [Example 47, N-tert-butyl-4-(4-fluorophenylsulfonyl)-3,4-dihydro-2H-benzo[b][1,4]thiazine-6-carboxamide]
hCB2 EC50 range [1]: +B
rCB2 EC50 range (rat CB2 receptor (rCB2)): +A
hCB1 EC50 range [2]: +E

COCCCNC(=O)c1ccc2c(c1)N(S(=O)(=O)c1ccc(F)cc1)CCS2 [Example 49, 4-(4-fluorophenylsulfonyl)-N-(3-methoxypropyl)-3,4-dihydro-2H-benzo[b][1,4]thiazine-6-carboxamide]
hCB2 EC50 range [1]: +C
rCB2 EC50 range (rat CB2 receptor (rCB2)): +A
hCB1 EC50 range [2]: +E

CC(C)CNC(=O)c1ccc2c(c1)N(S(=O)(=O)c1ccc(Cl)cc1)CCO2 [Example 58, 4-(4-chlorophenylsulfonyl)-N-isobutyl-3,4-dihydro-2H-benzo[b][1,4]oxazine-6-carboxamide]
hCB2 EC50 range [1]: +B
rCB2 EC50 range (rat CB2 receptor (rCB2)): +A
hCB1 EC50 range [2]: +D

CC(C)CNC(=O)c1ccc2c(c1)N(S(=O)(=O)c1ccc(F)cc1)CCO2 [Example 60, 4-(4-fluorophenylsulfonyl)-N-isobutyl-3,4-dihydro-2H-benzo[b][1,4] oxazine-6-carboxamide]
hCB2 EC50 range [1]: +B
rCB2 EC50 range (rat CB2 receptor (rCB2)): +B
hCB1 EC50 range [2]: +D

O=C(NC1CCCC1)c1ccc2c(c1)N(S(=O)(=O)c1ccccc1)CCO2 [Example 61, N-cyclopentyl-4-(phenylsulfonyl)-3,4-dihydro-2H-benzo[b][1,4]oxazine-6-carboxamide]
hCB2 EC50 range [1]: +C
rCB2 EC50 range (rat CB2 receptor (rCB2)): +C
hCB1 EC50 range [2]: +E

O=C(NC1CCCC1)c1ccc2c(c1)N(S(=O)(=O)c1ccc(F)cc1)CCO2 [Example 62, N-cyclopentyl-4-(4-fluorophenylsulfonyl)-3,4-dihydro-2H-benzo[b][1,4]oxazine-6-carboxamide]
hCB2 EC50 range [1]: +B
rCB2 EC50 range (rat CB2 receptor (rCB2)): +A
hCB1 EC50 range [2]: +D

O=C(NC1CCCC1)c1ccc2c(c1)N(S(=O)(=O)c1ccc(Cl)cc1)CCO2 [Example 63, 4-(4-chlorophenylsulfonyl)-N-cyclopentyl-3,4-dihydro-2H-benzo[b][1,4]oxazine-6-carboxamide]
hCB2 EC50 range [1]: +B
rCB2 EC50 range (rat CB2 receptor (rCB2)): +A
hCB1 EC50 range [2]: +D

CC1(C)CCN(S(=O)(=O)c2ccccc2)c2cc(C(=O)N3CCCCC3)ccc2S1 [Example 93, (2,2-dimethyl-5-(phenylsulfonyl)-2,3,4,5-tetrahydro-benzo[b][1,4]thiazepin-7-yl)(piperidin-1-yl)methanone]
rCB2 EC50 range (rat CB2 receptor (rCB2)): +C
hCB1 EC50 range [2]: −E

COC(=O)[C@@H](NC(=O)c1ccc2c(c1)N(S(=O)(=O)c1ccccc1)CCC(C)(C)S2)C(C)(C)C [Example 95, (S)-methyl 2-(2,2-dimethyl-5-(phenyl-sulfonyl)-2,3,4,5-tetrahydrobenzo[b][1,4]thiazepine-7-carboxamido)-3,3-dimethylbutanoate]
hCB2 EC50 range [1]: +D
hCB1 EC50 range [2]: −D

CC(C)(C)CNC(=O)c1ccc2c(c1)N(S(=O)(=O)c1ccccc1)CCC(C)(C)S2 [Example 96, 2,2-dimethyl-N-neo-pentyl-5-(phenyl-sulfonyl)-2,3,4,5-tetrahydrobenzo[b][1,4] thiazepine-7-carboxamide]
hCB2 EC50 range [1]: +D
hCB1 EC50 range [2]: −D

C[C@@H](NC(=O)c1ccc2c(c1)N(S(=O)(=O)c1ccccc1)CCC(C)(C)S2)C(C)(C)C [Example 97, (R)-N-(3,3-dimethyl-butan-2-yl)-2,2-dimethyl-5-(phenyl-sulfonyl)-2,3,4,5-tetrahydrobenzo[b][1,4] thiazepine-7-carboxamide]
hCB2 EC50 range [1]: +D
hCB1 EC50 range [2]: −D

CC1(C)CCN(S(=O)(=O)c2ccc(F)cc2)c2cc(C(=O)NCC3CCOCC3)ccc2S1 [Example 99, 5-(4-fluorophenyl-sulfonyl)-2,2-dimethyl-N-((tetrahydro-2H-pyran-4-yl)methyl)-2,3,4,5-tetrahydro-benzo[b][1,4]thiazepine-7-carboxamide]
rCB2 EC50 range (rat CB2 receptor (rCB2)): −C
hCB1 EC50 range [2]: −E

Reference: patent US7960376B2, “Benzo-fused heterocycles” (priority 2007, dated 2011)
